In this assay the target is SARS-CoV-2 NSP14/10 complex (ExoN activity) (Severe acute respiratory syndrome coronavirus 2, UniProt P0DTD1). The assay can be described thus: biochemical. The format is biochemical.

“Also recorded” adds a separate entry of the source.

`CC(C)=CCc1c(O)ccc(C(=O)/C=C/c2ccc(O)cc2)c1O` [#96, Isobavachalcone] had an IC50 of 17.4 ± 1.39 µM.

As to `Cc1ccc2ccc(C(=O)O)c(O)c2n1` [#38], the “NSP14/10-inhibitory activity (in words)” value was “no observed inhibition; also recorded: does not inhibit NSP14”.

Molecule `CC(C)=CCOc1ccc(/C=C/C(=O)c2ccc(OCC=C(C)C)cc2OCC(=O)O)cc1` [#102, Sofalcone, reference compound] gave an IC50 of 22 ± 6.02 µM.

On to `C[C@@H]1CCO[C@H]2Cn3cc(C(=O)NCc4ccc(F)cc4F)c(=O)c(O)c3C(=O)N12` [Dolutegravir, reference compound], for which the “NSP14/10-inhibitory activity (in words)” value was “detectable NSP14/10-inhibitory activities”.

For `O=C1Cc2ccccc2C(=O)N1O` [N-Hydroxy-isoquinoline-1,3-dione, reference compound], the “NSP14/10-inhibitory activity (in words)” value is recorded as “detectable NSP14/10-inhibitory activities”.

Values taken from publication PMC8640510 (Cell Death and Differentiation, 2021).
